Values after ≈ are worked out from the molar mass of the structure shown.
Columns and labels:
Format in all cases: functional
Fusarium sp. = experiment: Antifungal activity against Fusarium sp. clinical isolates after 48 hrs by broth microdilution method
Aspergillus candidus = experiment: Antifungal activity against Aspergillus candidus clinical isolates after 48 hrs by broth microdilution method
[1] = Antifungal activity against Fusarium poae clinical isolates after 48 hrs by broth microdilution method
[2] = Antifungal activity against Fusarium lateritium clinical isolates after 48 hrs by broth microdilution method
Fusarium avenaceum = experiment: Antifungal activity against Fusarium avenaceum species complex clinical isolates after 48 hrs by broth microdilution method
Aspergillus niger = experiment: Antifungal activity against Aspergillus niger clinical isolates after 48 hrs by broth microdilution method
Aspergillus nidulans = experiment: Antifungal activity against Aspergillus nidulans clinical isolates after 48 hrs by broth microdilution method
Aspergillus versicolor = experiment: Antifungal activity against Aspergillus versicolor species complex clinical isolates after 48 hrs by broth microdilution method
Aspergillus flavus = experiment: Antifungal activity against Aspergillus flavus species complex clinical isolates after 48 hrs by broth microdilution method
Aspergillus oryzae = experiment: Antifungal activity against Aspergillus oryzae species complex clinical isolates after 48 hrs by broth microdilution method
Fusarium verticillioides = experiment: Antifungal activity against Fusarium moniliforme species complex clinical isolates after 48 hrs by broth microdilution method
Aspergillus ochraceus = experiment: Antifungal activity against Aspergillus ochraceus clinical isolates after 48 hrs by broth microdilution method
Fusarium oxysporum = experiment: Antifungal activity against Fusarium oxysporum clinical isolates after 48 hrs by broth microdilution method
Aspergillus wentii = experiment: Antifungal activity against Aspergillus wentii clinical isolates after 48 hrs by broth microdilution method
Alternaria alternata = experiment: Antifungal activity against Alternaria alternata clinical isolates after 48 hrs by broth microdilution method
Fusarium solani = experiment: Antifungal activity against Fusarium solani species complex clinical isolates after 48 hrs by broth microdilution method
Aspergillus sp. = experiment: Antifungal activity against Aspergillus sp. clinical isolates after 48 hrs by broth microdilution method
Aspergillus fumigatus = experiment: Antifungal activity against Aspergillus fumigatus species complex clinical isolates after 48 hrs by broth microdilution method
[3] = Fusarium sp., 48 h, read-out: MIC90

C[C@@H](c1ncncc1F)[C@](O)(Cn1cncn1)c1ccc(F)cc1F [VORICONAZOLE]
MIC90 (Fusarium sp.; [3]): 2 µg/mL (≈ 5.73 µM)

THIMEROSAL
MIC50 (Aspergillus candidus): 0.0156 µg/mL | MIC90 (Aspergillus candidus): 0.0313 µg/mL | MIC50 [1]: 0.0156 µg/mL | MIC90 [1]: 0.0313 µg/mL | MIC50 (Fusarium sp.): 0.0156 µg/mL | MIC90 (Fusarium sp.): 0.0313 µg/mL | MIC50 [2]: 0.0156 µg/mL | MIC90 [2]: 0.0313 µg/mL | MIC50 (Fusarium avenaceum): 0.0156 µg/mL | MIC90 (Fusarium avenaceum): 0.0313 µg/mL | MIC50 (Aspergillus niger): 0.0156 µg/mL | MIC90 (Aspergillus niger): 0.0313 µg/mL | MIC50 (Aspergillus nidulans): 0.0156 µg/mL | MIC90 (Aspergillus nidulans): 0.0313 µg/mL | MIC50 (Aspergillus versicolor): 0.0156 µg/mL | MIC90 (Aspergillus versicolor): 0.0625 µg/mL | MIC50 (Aspergillus flavus): 0.0625 µg/mL | MIC90 (Aspergillus flavus): 0.0625 µg/mL | MIC50 (Aspergillus oryzae): 0.0625 µg/mL | MIC90 (Aspergillus oryzae): 0.0625 µg/mL | MIC50 (Fusarium verticillioides): 0.0156 µg/mL | MIC90 (Fusarium verticillioides): 0.0313 µg/mL | MIC50 (Aspergillus ochraceus): 0.0156 µg/mL | MIC90 (Aspergillus ochraceus): 0.0313 µg/mL | MIC50 (Fusarium oxysporum): 0.0156 µg/mL | MIC90 (Fusarium oxysporum): 0.0313 µg/mL | MIC50 (Aspergillus wentii): 0.0156 µg/mL | MIC90 (Aspergillus wentii): 0.0313 µg/mL | MIC50 (Alternaria alternata): 0.0156 µg/mL | MIC90 (Alternaria alternata): 0.0313 µg/mL | MIC50 (Fusarium solani): 0.0156 µg/mL | MIC90 (Fusarium solani): 0.0313 µg/mL | MIC50 (Aspergillus sp.): 0.0625 µg/mL | MIC90 (Aspergillus sp.): 0.0625 µg/mL | MIC50 (Aspergillus fumigatus): 0.0313 µg/mL | MIC90 (Aspergillus fumigatus): 0.0625 µg/mL

CC[C@@H]([C@H](C)O)n1ncn(-c2ccc(N3CCN(c4ccc(OC[C@@H]5CO[C@@](Cn6cncn6)(c6ccc(F)cc6F)C5)cc4)CC3)cc2)c1=O [POSACONAZOLE]
MIC90 (Fusarium sp.; [3]): > 8 µg/mL

C[C@@H]1[C@H](O)[C@@H](C)/C=C/C=C/C=C/C=C/C=C/C=C/C=C/[C@H](O[C@@H]2O[C@H](C)[C@@H](O)[C@H](N)[C@@H]2O)C[C@@H]2O[C@](O)(C[C@@H](O)C[C@@H](O)[C@H](O)CC[C@@H](O)C[C@@H](O)CC(=O)O[C@H]1C)C[C@H](O)[C@H]2C(=O)O [AMPHOTERICIN B]
MIC (Aspergillus candidus): 1 µg/mL (≈ 1.08 µM) | MIC50 (Aspergillus candidus): 1 µg/mL (≈ 1.08 µM) | MIC90 (Aspergillus candidus): 2 µg/mL (≈ 2.16 µM) | MIC50 [1]: 1 µg/mL (≈ 1.08 µM) | MIC90 [1]: 2 µg/mL (≈ 2.16 µM) | MIC90 (Fusarium sp.): 2 µg/mL (≈ 2.16 µM) | MIC (Fusarium sp.; Fusarium sp., 48 h): 1 µg/mL (≈ 1.08 µM) | MIC50 (Fusarium sp.; Fusarium sp., 48 h): 1 µg/mL (≈ 1.08 µM) | MIC90 (Fusarium sp.; [3]): 2 µg/mL (≈ 2.16 µM) | MIC50 [2]: 1 µg/mL (≈ 1.08 µM) | MIC90 [2]: 2 µg/mL (≈ 2.16 µM) | MIC (Fusarium avenaceum): 2 µg/mL (≈ 2.16 µM) | MIC50 (Fusarium avenaceum): 2 µg/mL (≈ 2.16 µM) | MIC90 (Fusarium avenaceum): 4 µg/mL (≈ 4.33 µM) | MIC (Aspergillus niger): 1 µg/mL (≈ 1.08 µM) | MIC50 (Aspergillus niger): 1 µg/mL (≈ 1.08 µM) | MIC90 (Aspergillus niger): 2 µg/mL (≈ 2.16 µM) | MIC (Aspergillus nidulans): 1 µg/mL (≈ 1.08 µM) | MIC50 (Aspergillus nidulans): 1 µg/mL (≈ 1.08 µM) | MIC90 (Aspergillus nidulans): 2 µg/mL (≈ 2.16 µM) | MIC (Aspergillus versicolor): 1 µg/mL (≈ 1.08 µM) | MIC50 (Aspergillus versicolor): 1 µg/mL (≈ 1.08 µM) | MIC90 (Aspergillus versicolor): 2 µg/mL (≈ 2.16 µM) | MIC (Aspergillus flavus): 2 µg/mL (≈ 2.16 µM) | MIC50 (Aspergillus flavus): 2 µg/mL (≈ 2.16 µM) | MIC90 (Aspergillus flavus): 2 µg/mL (≈ 2.16 µM) | MIC (Aspergillus oryzae): 1 µg/mL (≈ 1.08 µM) | MIC50 (Aspergillus oryzae): 1 µg/mL (≈ 1.08 µM) | MIC90 (Aspergillus oryzae): 2 µg/mL (≈ 2.16 µM) | MIC (Fusarium verticillioides): 2 µg/mL (≈ 2.16 µM) | MIC50 (Fusarium verticillioides): 2 µg/mL (≈ 2.16 µM) | MIC90 (Fusarium verticillioides): 2 µg/mL (≈ 2.16 µM) | MIC (Aspergillus ochraceus): 1 µg/mL (≈ 1.08 µM) | MIC50 (Aspergillus ochraceus): 1 µg/mL (≈ 1.08 µM) | MIC90 (Aspergillus ochraceus): 2 µg/mL (≈ 2.16 µM) | MIC (Fusarium oxysporum): 1 µg/mL (≈ 1.08 µM) | MIC50 (Fusarium oxysporum): 1 µg/mL (≈ 1.08 µM) | MIC90 (Fusarium oxysporum): 2 µg/mL (≈ 2.16 µM) | MIC (Aspergillus wentii): 1 µg/mL (≈ 1.08 µM) | MIC50 (Aspergillus wentii): 1 µg/mL (≈ 1.08 µM) | MIC90 (Aspergillus wentii): 2 µg/mL (≈ 2.16 µM) | MIC (Alternaria alternata): 0.125 µg/mL (≈ 0.135 µM) | MIC50 (Alternaria alternata): 0.125 µg/mL (≈ 0.135 µM) | MIC90 (Alternaria alternata): 0.125 µg/mL (≈ 0.135 µM) | MIC (Fusarium solani): 1 µg/mL (≈ 1.08 µM) | MIC50 (Fusarium solani): 1 µg/mL (≈ 1.08 µM) | MIC90 (Fusarium solani): 2 µg/mL (≈ 2.16 µM) | MIC (Aspergillus sp.): 1 µg/mL (≈ 1.08 µM) | MIC50 (Aspergillus sp.): 1 µg/mL (≈ 1.08 µM) | MIC90 (Aspergillus sp.): 2 µg/mL (≈ 2.16 µM) | MIC (Aspergillus fumigatus): 1 µg/mL (≈ 1.08 µM) | MIC50 (Aspergillus fumigatus): 1 µg/mL (≈ 1.08 µM) | MIC90 (Aspergillus fumigatus): 2 µg/mL (≈ 2.16 µM)

CN(C/C=C/C#CC(C)(C)C)Cc1cccc2ccccc12 [TERBINAFINE]
MIC90 (Fusarium sp.; [3]): 8 µg/mL (≈ 27.5 µM)

C[C@@H]1C/C=C/C=C/C=C/C=C/[C@H](O[C@@H]2O[C@H](C)[C@@H](O)[C@H](N)[C@@H]2O)C[C@@H]2O[C@](O)(C[C@@H](O)C[C@H]3O[C@@H]3/C=C/C(=O)O1)C[C@H](O)[C@H]2C(=O)O [NATAMYCIN]
MIC (Aspergillus candidus): 4 µg/mL (≈ 6.01 µM) | MIC50 (Aspergillus candidus): 4 µg/mL (≈ 6.01 µM) | MIC90 (Aspergillus candidus): 32 µg/mL (≈ 48.1 µM) | MIC50 [1]: 4 µg/mL (≈ 6.01 µM) | MIC90 [1]: 8 µg/mL (≈ 12 µM) | MIC90 (Fusarium sp.): 16 µg/mL (≈ 24 µM) | MIC (Fusarium sp.; Fusarium sp., 48 h): 4 µg/mL (≈ 6.01 µM) | MIC50 (Fusarium sp.; Fusarium sp., 48 h): 4 µg/mL (≈ 6.01 µM) | MIC90 (Fusarium sp.; [3]): 8 µg/mL (≈ 12 µM) | MIC50 [2]: 4 µg/mL (≈ 6.01 µM) | MIC90 [2]: 8 µg/mL (≈ 12 µM) | MIC (Fusarium avenaceum): 8 µg/mL (≈ 12 µM) | MIC50 (Fusarium avenaceum): 8 µg/mL (≈ 12 µM) | MIC90 (Fusarium avenaceum): 8 µg/mL (≈ 12 µM) | MIC (Aspergillus niger): 4 µg/mL (≈ 6.01 µM) | MIC50 (Aspergillus niger): 4 µg/mL (≈ 6.01 µM) | MIC90 (Aspergillus niger): 32 µg/mL (≈ 48.1 µM) | MIC (Aspergillus nidulans): 4 µg/mL (≈ 6.01 µM) | MIC50 (Aspergillus nidulans): 4 µg/mL (≈ 6.01 µM) | MIC90 (Aspergillus nidulans): 32 µg/mL (≈ 48.1 µM) | MIC (Aspergillus versicolor): 8 µg/mL (≈ 12 µM) | MIC50 (Aspergillus versicolor): 8 µg/mL (≈ 12 µM) | MIC90 (Aspergillus versicolor): 32 µg/mL (≈ 48.1 µM) | MIC (Aspergillus flavus): 32 µg/mL (≈ 48.1 µM) | MIC50 (Aspergillus flavus): 32 µg/mL (≈ 48.1 µM) | MIC90 (Aspergillus flavus): 32 µg/mL (≈ 48.1 µM) | MIC (Aspergillus oryzae): 32 µg/mL (≈ 48.1 µM) | MIC50 (Aspergillus oryzae): 32 µg/mL (≈ 48.1 µM) | MIC90 (Aspergillus oryzae): 32 µg/mL (≈ 48.1 µM) | MIC (Fusarium verticillioides): 4 µg/mL (≈ 6.01 µM) | MIC50 (Fusarium verticillioides): 4 µg/mL (≈ 6.01 µM) | MIC90 (Fusarium verticillioides): 8 µg/mL (≈ 12 µM) | MIC (Aspergillus ochraceus): 4 µg/mL (≈ 6.01 µM) | MIC50 (Aspergillus ochraceus): 4 µg/mL (≈ 6.01 µM) | MIC90 (Aspergillus ochraceus): 32 µg/mL (≈ 48.1 µM) | MIC (Fusarium oxysporum): 4 µg/mL (≈ 6.01 µM) | MIC50 (Fusarium oxysporum): 4 µg/mL (≈ 6.01 µM) | MIC90 (Fusarium oxysporum): 8 µg/mL (≈ 12 µM) | MIC (Aspergillus wentii): 4 µg/mL (≈ 6.01 µM) | MIC50 (Aspergillus wentii): 4 µg/mL (≈ 6.01 µM) | MIC90 (Aspergillus wentii): 32 µg/mL (≈ 48.1 µM) | MIC (Alternaria alternata): 4 µg/mL (≈ 6.01 µM) | MIC50 (Alternaria alternata): 4 µg/mL (≈ 6.01 µM) | MIC90 (Alternaria alternata): 4 µg/mL (≈ 6.01 µM) | MIC (Fusarium solani): 4 µg/mL (≈ 6.01 µM) | MIC50 (Fusarium solani): 4 µg/mL (≈ 6.01 µM) | MIC90 (Fusarium solani): 8 µg/mL (≈ 12 µM) | MIC (Aspergillus sp.): 32 µg/mL (≈ 48.1 µM) | MIC50 (Aspergillus sp.): 32 µg/mL (≈ 48.1 µM) | MIC90 (Aspergillus sp.): 32 µg/mL (≈ 48.1 µM) | MIC (Aspergillus fumigatus): 4 µg/mL (≈ 6.01 µM) | MIC50 (Aspergillus fumigatus): 4 µg/mL (≈ 6.01 µM) | MIC90 (Aspergillus fumigatus): 4 µg/mL (≈ 6.01 µM)

CC(=O)N1CCN(c2ccc(OCC3COC(Cn4ccnc4)(c4ccc(Cl)cc4Cl)O3)cc2)CC1 (stereo not given) [KETOCONAZOLE]
MIC90 (Fusarium sp.; [3]): > 16 µg/mL

CC[C@H](C)C[C@H](C)CCCCCCCCC(=O)N[C@H]1C[C@@H](O)[C@@H](NCCN)NC(=O)[C@@H]2[C@@H](O)CCN2C(=O)[C@H]([C@H](O)CCN)NC(=O)[C@H]([C@H](O)[C@@H](O)c2ccc(O)cc2)NC(=O)[C@@H]2C[C@@H](O)CN2C(=O)[C@H]([C@@H](C)O)NC1=O [CASPOFUNGIN]
MIC90 (Fusarium sp.; [3]): > 16 µg/mL

OC(Cn1cncn1)(Cn1cncn1)c1ccc(F)cc1F [FLUCONAZOLE]
MIC90 (Fusarium sp.; [3]): > 256 µg/mL

CCC(C)n1ncn(-c2ccc(N3CCN(c4ccc(OCC5COC(Cn6cncn6)(c6ccc(Cl)cc6Cl)O5)cc4)CC3)cc2)c1=O (stereo not given) [ITRACONAZOLE]
MIC90 (Fusarium sp.; [3]): > 16 µg/mL

Nc1nc(=O)[nH]cc1F [FLUCYTOSINE]
MIC90 (Fusarium sp.; [3]): > 64 µg/mL

Source: ChEMBL document CHEMBL1212747, “In vitro activity of thimerosal against ocular pathogenic fungi” (2010)
